According to patent US10793599B2, “MPHOSPH1-derived peptide, and vaccine including same” (OncoTherapy Science, Inc., priority 2015, dated 2020):
Entries after “also recorded” stand apart in the source; their conditions may differ.

Key:
peptide-pulsed C1R-A11 [1] = assay: In vitro CTL induction, IFN-gamma ELISPOT assay (HLA-A*11:01); assay type: cell-based, human; conditions: CD8 positive T cells of HLA-A*11:01-positive donors after three stimulations with peptide-pulsed DCs, against peptide-pulsed C1R-A11
Method: (§1) Monocyte-derived dendritic cells (DCs) were used as the antigen-presenting cell to induce a specific cytotoxic T lymphocyte (CTL) response against peptides presented on human leukocyte antigens (HLAs). As already reported in literatures, DCs were generated in vitro (Nakahara S et al., Cancer Res 2003, 63(14): 4112-8). Specifically, peripheral-blood mononuclear cells (PBMCs) collected from healthy volunteers (HLA-A*11:01-positive) with the Ficoll-Paque plus solution (Pharmacia) were seeded in plastic tissue culture dishes (Corning) to let the monocytes in the PBMCs adhere to the dishes. This was cultured in the presence of 1000 IU/ml granulocyte macrophage colony-stimulating factor (R&D System) and 1000 IU/ml interleukin (IL)-4 (R&D System) for seven days. An AIM-V medium (Invitrogen) containing 5% inactivated AB-type serum (ABS) was used as the medium. DCs that were induced to differentiate from monocytes using the cytokines were pulsed with 20 micro-g/ml of each synthesized peptide (37 degrees C., three hours). Peptide pulsing was carried out in an AIM-V medium containing 3 micro-g/ml beta 2-microglobulin. These peptide-pulsed DCs were inactivated by X-ray irradiation (20 Gy), mixed in a 1:20 ratio with autologous CD8 positive T cells obtained by positive selection using the CD8 Positive Isolation Kit (Invitrogen) (1.5×10^4 DCs and 3×10^5 CD8 positive T cells), and cultured in a 48-well plate (Corning). Each well contained 0.5 ml of the 5% ABS/AIM-V medium, and IL-7 (R&D System) was added thereto (final concentration: 10 ng/ml). Two days after the start of the culture, IL-2 (Novartis) was added (final concentration: 20 IU/ml). On day 7 and day 14 of culture, the CD8 positive T cells were further stimulated with peptide-pulsed DCs. The DCs were prepared at the time of use by the same method as above. After day 21 (after three DC stimulations), IFN-gamma production against the peptide-pulsed C1R-A11 was confirmed using human interferon (IFN)-gamma enzyme-linked immunospot (ELISPOT) assay (Tanaka H et al., Br J Cancer 2001, 84(1): 94-9; Umano Y et al., Br J Cancer 2001, 84(8): 1052-7; Uchida N et al., Clin Cancer Res 2004, 10(24): 8577-86; Suda T et al., Cancer Sci 2006, 97(5): 411-9; Watanabe T et al., Cancer Sci 2005, 96(8): 498-506).
(§2) Peptide-pulsed C1R-A11 (1×10^4 cells/well) was prepared as the target cell. The IFN-gamma ELISPOT assay and IFN-gamma ELISA were performed according to the assay kit manufacturer's manual.

peptide-pulsed C1R-A33 [2] = assay: In vitro CTL induction, IFN-gamma ELISPOT assay (HLA-A*33:03); assay type: cell-based, human; conditions: CD8 positive T cells of HLA-A*33:03-positive donors after three stimulations with peptide-pulsed DCs, against peptide-pulsed C1R-A33
Method: as §1, with “(HLA-A*33:03-positive)” for “(HLA-A*11:01-positive)”, “there” for “thereto”, “C1R-A33” for “C1R-A11”, “1052-7:” for “1052-7;”
(§3) Peptide-pulsed C1R-A33 (1×10^4 cells/well) was prepared as the target cell. The IFN-gamma ELISPOT assay and IFN-gamma ELISA assay were performed according to the assay kit manufacturer's manual.

peptide-pulsed C1R-A33 [3] = assay: IFN-gamma ELISA of CTL lines and CTL clones (HLA-A*33:03); assay type: cell-based, human; conditions: listed as MPHOSPH1-A33-10-57
Method: (§4) CTLs were propagated using methods similar to those reported by Riddell et al. (Walter E A et al., N Engl J Med 1995, 333(16): 1038-44; Riddell S R et al., Nat Med 1996, 2(2): 216-23). The CTLs were cultured in 25 ml 5% ABS/AIM-V medium together with two types of Mitomycin C-treated human B lymphoblastoid cell lines (5×10^6 cells/25 ml medium each) and an anti-CD3 antibody (final concentration: 40 ng/ml). On the day after beginning of the culturing, IL-2 (final concentration: 120 IU/ml) was added to the culture. On days 5, 8 and 11, the medium was changed to a 5% ABS/AIM-V medium containing IL-2 (final concentration: 30 IU/ml) (Tanaka H et al., Br J Cancer 2001, 84(1): 94-9; Umano Y et al., Br J Cancer 2001, 84(8): 1052-7; Uchida N et al., Clin Cancer Res 2004, 10(24): 8577-86; Suda T et al., Cancer Sci 2006, 97(5): 411-9; Watanabe T et al., Cancer Sci 2005, 96(8): 498-506).
(§5) After induction of CTLs in vitro, the CTLs were seeded onto 96 round-bottomed microtiter plates (Nalge Nunc International) at 1 cell/well or 10 cells/well. The CTLs were cultured with two types of Mitomycin C-treated human B lymphoblastoid cell lines (1×10^4 cells/well each) in a total of 150 micro-l/well 5% ABS/AIM-V medium with an anti-CD3 antibody (final concentration: 30 ng/ml) and IL-2 (final concentration: 125 IU/ml). Ten days later, 50 micro-l 5% ABS/AIM-V medium containing 500 IU/ml IL-2 was added to the culture.
as §3

peptide-pulsed C1R-A11 [4] = assay: IFN-gamma ELISA of CTL lines and CTL clones (HLA-A*11:01); assay type: cell-based, human; conditions: for peptide-specific IFN-gamma production of CTL clone (ELISA): CTL clone by limiting dilution, against C1R-A11 pulsed with the peptide; for IFN-gamma production by CTL line (ELISA): CTL line against C1R-A11 pulsed with the peptide
Method: as §4
as §5, with “micro-1/well” for “micro-l/well”, “micro-15%” for “micro-l 5%”, “culture. […].” for “culture.”
as §2

[5] = tested on: COS7 cells expressing MPHOSPH1 and HLA-A*11:01; assay: IFN-gamma production of CTL clone against target cells expressing MPHOSPH1 and HLA-A*11:01; assay type: cell-based, African green monkey
Method: as §2
A cDNA encoding the MPHOSPH1 or HLA-A*11:01 gene was amplified by PCR. The PCR-amplified product was each incorporated into an expression vector. Either or both of the MPHOSPH1 gene-expressing vector and the HLA-A*11:01 gene-expressing vector were introduced into COS7, which is a cell line negative for HLA, using Lipofectamine 2000 (Invitrogen) following the manufacturer's recommended protocol. On the day after gene introduction, COS7 cells were detached and harvested using versene (Invitrogen), and used as the target cell for confirmation of IFN-gamma production (5×10^4 cells/well).

## CILGRLSEK (a peptide derived from MPHOSPH1) [SEQ ID NO: 27]
peptide-pulsed C1R-A11 [1]; listed as MPHOSPH1-A11-9-96
  peptide-specific IFN-gamma production (ELISPOT): Peptide-specific IFN-gamma production was observed

## DLQKWREER (a peptide derived from MPHOSPH1) [SEQ ID NO: 119]
peptide-pulsed C1R-A33 [2]; listed as MPHOSPH1-A33-9-1474
  peptide-specific IFN-gamma production (ELISPOT): Peptide-specific IFN-gamma production was observed

## DYLQVCLRIR (a peptide derived from MPHOSPH1) [SEQ ID NO: 170]
peptide-pulsed C1R-A33 [2]; listed as MPHOSPH1-A33-10-57
  peptide-specific IFN-gamma production (ELISPOT): Peptide-specific IFN-gamma production was observed
peptide-pulsed C1R-A33 [3]; CTL clone by limiting dilution, against C1R-A33 pulsed with the peptide
  peptide-specific IFN-gamma production of CTL clone (ELISA): showed a peptide-specific IFN-gamma production
peptide-pulsed C1R-A33 [3]; CTL line against C1R-A33 pulsed with the peptide
  IFN-gamma production by CTL line (ELISA): CTL lines that produce IFN-gamma in a peptide-specific manner were established; also recorded: observed

## SIIGVNLATK (a peptide derived from MPHOSPH1) [SEQ ID NO: 53]
peptide-pulsed C1R-A11 [1]; listed as MPHOSPH1-A11-10-1675
  peptide-specific IFN-gamma production (ELISPOT): Peptide-specific IFN-gamma production was observed

## SSARTQNLK (a peptide derived from MPHOSPH1) [SEQ ID NO: 12]
peptide-pulsed C1R-A11 [1]; listed as MPHOSPH1-A11-9-1227
  peptide-specific IFN-gamma production (ELISPOT): Peptide-specific IFN-gamma production was observed
peptide-pulsed C1R-A11 [4]; listed as MPHOSPH1-A11-9-1227
  peptide-specific IFN-gamma production of CTL clone (ELISA): showed a peptide-specific IFN-gamma production
  IFN-gamma production by CTL line (ELISA): CTL lines that produce IFN-gamma in a peptide-specific manner were established; also recorded: observed

## SSKKTYSLR (a peptide derived from MPHOSPH1) [SEQ ID NO: 48]
peptide-pulsed C1R-A33 [2]; listed as MPHOSPH1-A33-9-1663
  peptide-specific IFN-gamma production (ELISPOT): peptide-specific IFN-gamma production was not observed

## STSFEISRNK (a peptide derived from MPHOSPH1) [SEQ ID NO: 52]
peptide-pulsed C1R-A11 [1]; listed as MPHOSPH1-A11-10-1546
  peptide-specific IFN-gamma production (ELISPOT): Peptide-specific IFN-gamma production was observed
peptide-pulsed C1R-A11 [4]; listed as MPHOSPH1-A11-10-1546
  peptide-specific IFN-gamma production of CTL clone (ELISA): showed a peptide-specific IFN-gamma production
  IFN-gamma production by CTL line (ELISA): CTL lines that produce IFN-gamma in a peptide-specific manner were established; also recorded: observed
[5]; against COS7 cells expressing both MPHOSPH1 and HLA-A*11:01
  IFN-gamma production of peptide-specific CTL clone: showed IFN-gamma production
[5]; against negative control COS7 cells expressing either one of MPHOSPH1 and HLA-A*11:01, listed as MPHOSPH1-A11-10-1546
  IFN-gamma production of peptide-specific CTL clone: a significant IFN-gamma production was not shown; also recorded: a significant IFN-gamma production was not observed

## TINEFQNLK (a peptide derived from MPHOSPH1) [SEQ ID NO: 4]
peptide-pulsed C1R-A11 [1]; listed as MPHOSPH1-A11-9-739
  peptide-specific IFN-gamma production (ELISPOT): peptide-specific IFN-gamma production was not observed

## TSSLIINNK (a peptide derived from MPHOSPH1) [SEQ ID NO: 5]
peptide-pulsed C1R-A11 [1]; listed as MPHOSPH1-A11-9-762
  peptide-specific IFN-gamma production (ELISPOT): Peptide-specific IFN-gamma production was observed
